Values of other authors as cited in patent publication US10278390B2, “Antimicrobial transparent plastic in the form of film or extruded shape” (priority 2016, dated 2019).

Test system: bacteria

In the case of `[Ag+]` [silver ions], the “concentrations at which the metabolism of bacteria is adversely affected” value is listed as 0.01 to 0.1 mg/L.
